Among the data in a melting point compilation (Tetko et al.; mined from patent text by program, amines drawn as free bases though some values may be those of a salt) are melting point values, retold here.

Structures are written as SMILES.

`CC(C)(C)C(O)(CCC1CCCCC1)Cn1cncn1` (stereo not given) yielded a melting point of 63 to 67 °C.

In the case of `CC(=NO)c1ccc(OCc2ccccc2)c(CCCc2ccc(C(=O)NCCO)cc2)c1`, the melting point fell in the range of 131 to 132 °C.

`CC(CCc1nnn[nH]1)Oc1cccc(OCc2ccc3ccccc3n2)c1` (stereo not given) displayed a melting point of 147 to 149 °C.

The compound `CNC(=O)C1=CC(CF)(CF)Oc2ccccc21` had a melting point of 138 to 139 °C.

As to `COC(=O)C(CCSC)N(C(=O)OC(C)(C)C)C(=O)c1ccc(N)c2ccccc12` (stereo not given), the melting point lay in the range of 131 to 132 °C.

`O=C1C(c2ccccc2)c2cccc3c2N1CCN3` (stereo not given) gave a melting point of 168 to 171 °C.

With `O=C1c2cc(CCCCOC(=O)C(F)(F)F)ccc2OCc2ccsc21`, the melting point was in the range of 65.5 to 67 °C.

Compound `CNc1nnc(S[Si](C)(C)C)s1` showed a melting point of 80 to 82 °C.

With `O=C(OCP(=O)(C1CCCCC1)C1CCCCC1)c1ccc(C(=O)OCP(=O)(C2CCCCC2)C2CCCCC2)cc1`, the melting point was in the range of 226 to 228 °C.

Consider `CS(=O)(=O)c1ccc(-n2nc(C(F)(F)F)cc2-c2ccc(-c3cscn3)cc2)cc1`, for which the melting point was in the range of 168 to 170 °C.

The compound `CCc1nc2c(N)nc3cccnc3c2n1NCCCNS(C)(=O)=O` showed a melting point of 176 to 178 °C.

Compound `CS(=O)(=O)OC(c1ccc(C(O)(C(F)(F)F)C(F)(F)F)cc1)(C(F)(F)F)C(F)(F)F` registered a melting point of 160 °C.

`CCN1Cc2nc(CO)cn2-c2ccccc21` registered a melting point of 160 to 165 °C.

In turn, `CC1(OC(=O)C=CC2C(C(=O)OC(C#N)c3cccc(Oc4ccccc4)c3)C2(C)C)CCC1` (stereo not given) displayed a melting point of 78 °C.

Compound `CCOC(=O)Cn1c(=S)c2ccccc2n(Cc2ccc(Cl)c(Cl)c2)c1=O` displayed a melting point of 128 to 129 °C.

The compound `OC1(c2cccn2Cc2ccccc2F)CCN(CCCc2noc3cc(F)ccc23)CC1` displayed a melting point of 100 to 104 °C.

Compound `CCn1c(C)nc2cc(C(F)(F)F)c(Cl)c(NC)c21` registered a melting point of 116 to 119 °C.

Turning to `O=C(NNS(=O)(=O)c1ccccc1)c1ccc(I)cc1`, the melting point lay within 193 to 195 °C.

Regarding `CCS(=O)(=O)C(NC(C)=O)C(=O)NCc1ccccc1` (stereo not given), the melting point fell in the range of 161 to 163 °C.

Compound `COC(=O)c1ccc(OCC=C(C)CCC=C(C)C)cc1` came in with a melting point of 30 to 33 °C.

`CC(C(=O)O)c1cccc2cn[nH]c12` (stereo not given) returned a melting point of 171 to 176 °C.

For `Cc1nc(-c2ccccc2)c(-c2ccccc2)nc1N(C)CCCCOCC(=O)OC(C)(C)C`, the melting point is 48 to 51 °C.

Compound `CN(CC(=O)N[C@@H](CCC(N)=O)C(N)=O)C(=O)OCc1ccccc1` came in with a melting point of 186 to 196 °C.

In turn, `OP(O)C(NC(c1ccccc1)c1ccccc1)c1cccs1` (stereo not given) gave a melting point of 201 °C.

`O=C1CCCCCC1C(C[N+](=O)[O-])c1ccc(OCc2ccccc2)cc1` (racemic) displayed a melting point of 120 to 121 °C.

Compound `COC(=O)c1sc(C(=O)OC)c([N+](=O)[O-])c1OC` displayed a melting point of 80 to 82 °C.

As to `Cc1oc(-c2ccccc2)nc1COc1cccc(COc2ccc(CC(=O)O)cc2)c1`, the melting point was 179 to 180 °C.

With `c1ccc(N2c3ccccc3C3CN(CC45CC6CC(CC(C6)C4)C5)CCC32)cc1` (single isomer, unassigned; (+)), the melting point lay in the range of 117 to 119 °C.

With `O=C(Nc1ccc(O)cc1)C1CCCCC12OCCO2` (stereo not given), the melting point lay in the range of 173 to 174 °C.

For the compound `Nc1sc2c(c1C(=O)c1ccc(Cl)cc1)CCN(CCc1ccc([N+](=O)[O-])cc1)C2`, the melting point fell in the range of 150 to 152 °C.

The compound `C=CCOC(=O)CC(=O)CCN1C(=O)c2ccccc2C1=O` yielded a melting point of 53 to 55 °C.

`Cc1ccc(S(C)(=O)=O)cc1-c1n[nH]c2nc(Oc3ccc(F)cc3F)ncc12` displayed a melting point of 133 to 135 °C.

For `OCC1OC(n2c(Cl)c(-c3ccsc3)c3cc(Cl)c(Cl)cc32)C(O)C1O` (stereo not given), the melting point lay within 152 to 153 °C.

Turning to `Cn1c(Oc2ccc(-n3c4ncccc4n4ccnc34)cc2)nc2ccccc21`, the melting point is 232 to 234 °C.

`O=S(=O)(c1ccccc1)c1ccc(Cl)cn1`: the melting point lay in the range of 154 to 155 °C.

`CCCOc1cccc(CCOc2ccc3c(c2)C=C(C(=O)Nc2ccc(CN(C)C4CCOCC4)cc2)CCS3(=O)=O)c1` yielded a melting point of 153 to 154 °C.

Consider `CC(C)[C@H]1C(C(F)(F)F)OC(=O)N1Cc1ccccc1` (stereo not given in full), for which the melting point lay in the range of 92 to 93 °C.

Regarding `Cc1cn2nc(SCc3ccccc3)nc2nc1Cl`, the melting point fell in the range of 179 to 181 °C.

The compound `CCOC(=O)C(C)Oc1ccc(OCc2ccccc2)cc1` (stereo not given) gave a melting point of 36 to 44 °C.

As for `O=C(O)CSC1c2cccc(O)c2C(=O)c2c(O)cccc21`, the melting point fell in the range of 151 to 152 °C.

On to `COC(=O)Nc1nc2ccc(O)cc2[nH]1`, for which the melting point turned out to be 300 °C.

With `CCOC(=O)c1ccc(OCCCCCCCCCCCCCCOc2ccc(Cl)cc2)cc1`, the melting point lay in the range of 72.5 to 73.5 °C.

The compound `N#Cc1ccc(-c2cccc(C=O)n2)cc1` yielded a melting point of 158 to 159 °C.

Turning to `OCc1cnc(-c2cccs2)s1`, the melting point is 89 to 90 °C.

`CC(=O)c1c[nH]c(-c2ccccc2)n1` registered a melting point of 158 °C.

Compound `O=C(CNc1ccc(Cl)cc1)c1cc(O)c(O)c([N+](=O)[O-])c1` returned a melting point of 177 to 178 °C.

Compound `CC(C)[C@H](NC(=O)N(C)Cc1ccccn1)C(=O)N[C@@H](Cc1ccccc1)C[C@H](O)[C@H](Cc1ccccc1)NC(=O)OCc1cccnc1` registered a melting point of 58 to 61 °C.

For `CC(C)(CCCC(C(O)C(C)(C)C)n1cncn1)c1ccccc1` (stereo not given), the melting point fell in the range of 98 to 99 °C.

Consider `Cc1nn(C)c2c1N(C(=O)CN1CCCC1)c1ccccc1NC2=O`, for which the melting point is 114 to 116 °C.

As to `CCc1c(-c2ccccc2)c2c(COCCCN3CCCCC3)cc3c(O)ccc1n32`, the melting point was in the range of 93 to 99 °C.

In turn, `CCCCCCCCCCCCCCCNC(=O)OCC(CO)OC` (stereo not given) registered a melting point of 42.5 to 43 °C.

In turn, `COC(=O)CC(O)CCSc1cc(C(C)(C)C)c(O)c(C(C)(C)C)c1` (stereo not given) displayed a melting point of 77 to 80 °C.

Compound `Cc1nnc2ccc(-c3ccc(C(F)(F)F)cc3)nn12` returned a melting point of 199 to 201 °C.

`CCOC(=O)c1c(CC)nc2c(C(F)(F)F)cccc2c1O` came in with a melting point of 129 °C.

`CC(C)c1nn(-c2ccc(C(F)(F)F)cc2)cc1COc1cccc(CC(=O)O)c1` registered a melting point of 92 to 93 °C.

Take `CNC(=O)NC(NC(=O)C(Cl)(Cl)Cl)C(Cl)(Cl)Cl` (stereo not given): the melting point lay in the range of 209 to 210 °C.

Take `OCCCc1ncnn1C(c1ccccc1)(c1ccccc1)c1ccccc1`: the melting point lay within 150 to 152 °C.

Regarding `Nc1ccc([N+](=O)[O-])cc1S(N)(=O)=O`, the melting point was 202 to 204 °C.

Turning to `CC(C)CCS(=O)c1cccc(-c2nc(=O)c3ccccc3s2)n1` (stereo not given), the melting point is 59.5 to 61 °C.

The compound `CCOc1ccccc1OS(N)(=O)=O` came in with a melting point of 62 to 65 °C.

On to `OCc1[nH]c(=S)n(C2CCc3ccccc3C2)c1CO` (stereo not given), for which the melting point was in the range of 199 to 200 °C.

The compound `N#Cc1ccc(Oc2ccc(CC(=O)O)cc2)cc1` came in with a melting point of 126 to 128 °C.

The compound `CC(=O)N1CCc2c([nH]c3ccc(Cl)cc23)C1CCCN1CCN(C)CC1` (stereo not given) displayed a melting point of 59 to 61 °C.

`CC1(C)OCC(COc2cc(O)nc(N)n2)O1` (stereo not given) registered a melting point of 258 °C.

With `Cc1nc(C)c(C(C)(O)c2ccccn2)s1` (stereo not given), the melting point was in the range of 104 to 105 °C.

`CN1c2nnnn2-c2ccc(C(O)(c3ccc(Cl)cc3)c3cncn3C)cc2C1c1cccc(Cl)c1` (stereo not given) yielded a melting point of 235 °C.

For `CCCn1c(-c2ccc(-n3ccnc3)cc2)cnc1[C@H](Cc1ccccn1)N(C=O)c1cc2cc(F)ccc2o1`, the melting point lay within 77 to 81 °C.

On to `c1ccc2c(c1)sc1nncn12`, for which the melting point was in the range of 175 to 176 °C.

Compound `O=S1C(c2ccccc2)CC2(CC1c1ccccc1)OCCO2` (stereo not given) registered a melting point of 230 to 232 °C.

In turn, `CC(C)(C)C(=O)C(Cl)C(=O)Nc1cc(OC(=O)c2cc(C(C)(C)C)c(O)c(C(C)(C)C)c2)ccc1Cl` (stereo not given) had a melting point of 185 to 187 °C.

Regarding `NS(=O)(=O)Oc1cc(C(F)(F)F)cc(C(F)(F)F)c1`, the melting point is 118 to 120 °C.

Compound `CCCCCCCCCCCCCCn1c(=O)[nH]c2nc3ccccc3n2c1=O` came in with a melting point of 193 °C.

For the compound `CS(=O)c1cc(C(=O)O)c(Cl)cc1Cl` (stereo not given), the melting point was 200 to 201 °C.

As for `COC(=O)c1ccccc1OCC(O)CNC(C)C` (stereo not given), the melting point lay within 78 to 79 °C.

The compound `Oc1ccc2c(c1)CCCC(c1ccccc1)=C2c1ccc(OCCCCCSCc2ccccc2)cc1` yielded a melting point of 178 to 186 °C.

Take `CCCCOC(=O)NCCc1nc(-c2ccc(-c3ccccc3)cc2)c(C)[nH]1`: the melting point was 143 to 144 °C.

Compound `CCn1c2ccccc2c2cc(/C=C(\C#N)c3cccnc3)ccc21` displayed a melting point of 131 to 133 °C.

`CC1=C(C(N)=O)C(c2cccc([N+](=O)[O-])c2)n2ccnc2N1` (stereo not given) yielded a melting point of 238 to 240 °C.

`CCOCC1=C(C(=O)OCC)C(c2cccc(C#N)c2)C(C(=O)OCC)=C(CC)N1` (stereo not given) displayed a melting point of 125 °C.

As to `COC(=O)CCC(=O)c1ccc(OC)c(CCl)c1`, the melting point fell in the range of 78 to 80 °C.

Turning to `COc1ccc2c(c1)CCC(C(=O)Cc1ccccc1)C2C#N` (stereo not given), the melting point is 139 to 142 °C.

`COC(=O)c1ccc(Cc2cn(C)c3ccc(NC(=O)OC4CCCC4)cc23)c(OC)c1` showed a melting point of 134 to 135 °C.

Regarding `Cc1oc(-c2ccccc2)nc1CCC(=O)c1ccc(CCC=O)cc1`, the melting point lay in the range of 92 to 93 °C.

`COC(=O)C1=C(C)NC(C)=C(C(=O)OC)C1C1CCC(C(=O)OC)C1` (stereo not given) returned a melting point of 144 to 145 °C.

As for `Cc1sc(NC(=O)CCc2cnoc2-c2ccccc2)nc1-c1ccccc1`, the melting point was in the range of 150 to 151 °C.

The compound `Cc1nc(N2CCN(Cc3ccc(F)cc3)C2=O)sc1-c1nn[nH]n1` showed a melting point of 145 to 149 °C.

Compound `OCCOCC(O)c1cccc2ccccc12` (stereo not given) yielded a melting point of 91 to 92 °C.

The compound `O=c1c2ccccc2nc(CCl)n1-c1ccccc1Cl` displayed a melting point of 195 to 196 °C.

`Cc1cc(=O)c2ccc(OCC(O)CNC(C)C)cc2o1` (stereo not given) returned a melting point of 80 to 82 °C.

`CCOC(=O)C(C)(C)NC(=O)c1cccc(C2=NC(C)(C)Cc3cc(OC)c4c(c32)CC(C)(C)O4)c1`: the melting point was 114 to 115 °C.
